According to paper PMC9490060, “Synthesis and evaluation of anticancer activity of quillaic acid derivatives: A cell cycle arrest and apoptosis inducer through NF-κB and MAPK pathways” (Frontiers in Chemistry, 2022):

Key:
[1] = test system: HCT116 (human colorectal cancer cell line); experiment: MTT anti-proliferative assay, HCT116; assay type: cell-based; details: Homo sapiens, HCT-116, 48 h incubation, means ± SD, n = 3
Source text: (§1) The anti-proliferative activities against five human cancer cell lines, including HCT116 (human colorectal cancer cell line), MCF-7 (human breast cancer cell line), SW620 (human colorectal cancer cell line), BEL7402 (human hepatocellular carcinoma cell line), and HepG2 (human hepatocellular carcinoma cell line) were established for all the target compounds using the MTT assay.
(§2) The propidium iodide (PI) and Annexin V-FITC apoptosis detection kit were purchased from Invitrogen (Eugene, OR, United States). 3-(4,5-Dimethylthiazol-2-yl)-2,5-diphenyl-2H-tetrazolium bromide (MTT) was purchased from Sigma-Aldrich Co. (St. Louis, MO, United States). All human cell lines were used in this study, colorectal cancer cell HCT116, colorectal cancer cell SW620, breast cancer cell MCF-7, liver hepatocellular carcinoma cell BEL7402, liver hepatocellular carcinoma HepG2 and normal liver cell L02 were initially purchased from American Type Culture Collection (ATCC, Manassas, VA, United States). RPMI-1640 media, Dulbecco’s modified Eagle’s medium (DMEM), and foetal bovine serum (FBS) were provided from Gibco Company (Grand Island, NY, United States). Cell line MCF-7 and HepG2 were cultivated in DMEM containing 10% (v/v) heat-inactivated FBS, 100 units/ml penicillin and […] streptomycin (Grand Island, NY, United States). Cell lines HCT116, BEL7402, SW620, and L02 were cultivated in RPMI 1640 medium containing 10% (v/v) heat-inactivated FBS, 100 units/ml penicillin, and […] streptomycin. The cells were incubated at 37°C under a 5% CO2 and 90% relative humidity (RH) atmosphere.
(§3) Stock solutions were prepared by diluting target compounds in DMSO at concentrations (1.25, 2.5, 5, and 10 mM). The stock solution was then diluted (1.25, 2.5, 5, and 10 μM) with culture medium, and the concentration of DMSO was controlled not to exceed 0.1%.
(§4) Place the cells in a 96-well plate at an appropriate density to ensure exponential growth (1 × 10^4–1.2×10^4 cells per well) throughout the experiment, and then allow the cells to adhere for 24 h. The cells were then treated with continuous concentrations of each compound (1.25, 2.5, 5, and 10 μM) for 48 h. After 48 h of incubation, 15 μl of MTT solution was added to each well, and the final concentration was 2 mg/ml. Then incubate for another 4 h. After incubation, remove the MTT solution and add […] of DMSO to each well for staining. Shake vigorously for 10 min at room temperature to ensure complete dissolution. The optical density (OD) was read on a microplate reader (ELx 800, BioTek, Highland Park, Winooski, VT, United States) with a wavelength of 492 nm, and then the data was analyzed.

[2] = test system: SW620 (human colorectal cancer cell line); experiment: MTT anti-proliferative assay, SW620; assay type: cell-based; details: Homo sapiens, SW-620, 48 h incubation, means ± SD, n = 3
Source text: as §1, §2, §3, §4

[3] = test system: BEL7402 (human hepatocellular carcinoma cell line); experiment: MTT anti-proliferative assay, BEL7402; assay type: cell-based; details: Homo sapiens, Bel-7402, 48 h incubation, means ± SD, n = 3
Source text: as §1, §2, §3, §4

[4] = test system: HepG2 (human hepatocellular carcinoma cell line); experiment: MTT anti-proliferative assay, HepG2; assay type: cell-based; details: Homo sapiens, HepG2, 48 h incubation, means ± SD, n = 3
Source text: as §1, §2, §3, §4

[5] = test system: MCF-7 (human breast cancer cell line); experiment: MTT anti-proliferative assay, MCF-7; assay type: cell-based; details: Homo sapiens, MCF7, 48 h incubation, means ± SD, n = 3
Source text: as §1, §2, §3, §4

SMILES	IC50 [1]	IC50 [2]	IC50 [3]	IC50 [4]	IC50 [5]	melting point
CC1(C)CC[C@]2(C(=O)OCc3cn(-c4ccc([N+](=O)[O-])cc4)nn3)[C@H](O)C[C@]3(C)C(=CC[C@@H]4[C@@]5(C)CC[C@H](O)[C@@](C)(C=O)[C@@H]5CC[C@]43C)[C@@H]2C1 [Compound A10, (1-(4-nitrophenyl)-1H-1,2,3-triazol-4-yl)methyl (4aR,5R,6aS,6bR,8aR,9S,10S,12aR,12bR,14bS)-9-formyl-5,10-dihydroxy-2,2,6a,6b,9,12a-hexamethyl-1,3,4,5,6,6a,6b,7,8,8a,9,10,11,12,12a,12b,13,14b-octadecahydropicene-4a (2H)-carboxylate]	> 10 µM	> 10 µM	> 10 µM	> 10 µM	> 10 µM	193 to 194 °C
CC1(C)CC[C@]2(C(=O)OCc3nnc(-c4ccccc4)o3)[C@H](O)C[C@]3(C)C(=CC[C@@H]4[C@@]5(C)CC[C@H](O)[C@@](C)(C=O)[C@@H]5CC[C@]43C)[C@@H]2C1 [Compound B1, (5-phenyl-1,3,4-oxadiazol-2-yl)methyl (4aR,5R,6aS,6bR,8aR,9S,10S,12aR,12bR,14bS)-9-formyl-5,10-dihydroxy-2,2,6a,6b,9,12a-hexamethyl-1,3,4,5,6,6a,6b,7,8,8a,9,10,11,12,12a,12b,13,14b-octadecahydropicene-4a (2H)-carboxylate]	> 10 µM	> 10 µM	> 10 µM	> 10 µM	> 10 µM	130 to 132 °C
CC1(C)CC[C@]2(C(=O)OCc3nnc(-c4ccc(Cl)cc4)o3)[C@H](O)C[C@]3(C)C(=CC[C@@H]4[C@@]5(C)CC[C@H](O)[C@@](C)(C=O)[C@@H]5CC[C@]43C)[C@@H]2C1 [Compound B3, (5-(4-chlorophenyl)-1,3,4-oxadiazol-2-yl)methyl (4aR,5R,6aS,6bR,8aR,9S,10S,12aR,12bR,14bS)-9-formyl-5,10-dihydroxy-2,2,6a,6b,9,12a-hexamethyl-1,3,4,5,6,6a,6b,7,8,8a,9,10,11,12,12a,12b,13,14b-octadecahydropicene-4a (2H)-carboxylate]	5.01 ± 1.12 µM	8.18 ± 1.85 µM	> 10 µM	> 10 µM	> 10 µM	132 to 134 °C
COc1ccc(-c2nnc(COC(=O)[C@]34CCC(C)(C)C[C@H]3C3=CC[C@@H]5[C@@]6(C)CC[C@H](O)[C@@](C)(C=O)[C@@H]6CC[C@@]5(C)[C@]3(C)C[C@H]4O)o2)cc1 [Compound B4, (5-(4-methoxyphenyl)-1,3,4-oxadiazol-2-yl)methyl (4aR,5R,6aS,6bR,8aR,9S,10S,12aR,12bR,14bS)-9-formyl-5,10-dihydroxy-2,2,6a,6b,9,12a-hexamethyl-1,3,4,5,6,6a,6b,7,8,8a,9,10,11,12,12a,12b,13,14b-octadecahydropicene-4a (2H)-carboxylate]	3.65 ± 1.06 µM	7.23 ± 1.56 µM	9.15 ± 2.21 µM	8.38 ± 2.22 µM	> 10 µM	126 to 128 °C
COc1cc(-c2nnc(COC(=O)[C@]34CCC(C)(C)C[C@H]3C3=CC[C@@H]5[C@@]6(C)CC[C@H](O)[C@@](C)(C=O)[C@@H]6CC[C@@]5(C)[C@]3(C)C[C@H]4O)o2)cc(OC)c1OC [Compound B5, (5-(3,4,5-trimethoxyphenyl)-1,3,4-oxadiazol-2-yl)methyl (4aR,5R,6aS,6bR,8aR,9S,10S,12aR,12bR,14bS)-9-formyl-5,10-dihydroxy-2,2,6a,6b,9,12a-hexamethyl-1,3,4,5,6,6a,6b,7,8,8a,9,10,11,12,12a,12b,13,14b-octadecahydropicene-4a (2H)-carboxylate]	3.81 ± 1.23 µM	> 10 µM	7.36 ± 1.45 µM	8.45 ± 2.15 µM	> 10 µM	136 to 138 °C
CC1(C)CC[C@]2(C(=O)OCc3nnc(-c4ccc([N+](=O)[O-])cc4)o3)[C@H](O)C[C@]3(C)C(=CC[C@@H]4[C@@]5(C)CC[C@H](O)[C@@](C)(C=O)[C@@H]5CC[C@]43C)[C@@H]2C1 [Compound B6, (5-(4-nitrophenyl)-1,3,4-oxadiazol-2-yl)methyl (4aR,5R,6aS,6bR,8aR,9S,10S,12aR,12bR,14bS)-9-formyl-5,10-dihydroxy-2,2,6a,6b,9,12a-hexamethyl-1,3,4,5,6,6a,6b,7,8,8a,9,10,11,12,12a,12b,13,14b-octadecahydropicene-4a (2H)-carboxylate]	3.65 ± 1.22 µM	> 10 µM	> 10 µM	> 10 µM	> 10 µM	140 to 142 °C
CC1(C)CC[C@]2(C(=O)OCCn3ncn(-c4ccccc4)c3=O)[C@H](O)C[C@]3(C)C(=CC[C@@H]4[C@@]5(C)CC[C@H](O)[C@@](C)(C=O)[C@@H]5CC[C@]43C)[C@@H]2C1 [Compound C1, 2-(5-oxo-4-phenyl-4,5-dihydro-1H-1,2,4-triazol-1-yl)ethyl (4aR,5R,6aS,6bR,8aR,9S,10S,12aR,12bR,14bS)-9-formyl-5,10-dihydroxy-2,2,6a,6b,9,12a-hexamethyl-1,3,4,5,6,6a,6b,7,8,8a,9,10,11,12,12a,12b,13,14b-octadecahydropicene-4a (2H)-carboxylate]	4.43 ± 1.34 µM	6.12 ± 1.56 µM	> 10 µM	> 10 µM	> 10 µM	174 to 176 °C
CC1(C)CC[C@]2(C(=O)OCCn3ncn(-c4ccc(F)cc4)c3=O)[C@H](O)C[C@]3(C)C(=CC[C@@H]4[C@@]5(C)CC[C@H](O)[C@@](C)(C=O)[C@@H]5CC[C@]43C)[C@@H]2C1 [Compound C2, 2-(4-(4-fluorophenyl)-5-oxo-4,5-dihydro-1H-1,2,4-triazol-1-yl)ethyl (4aR,5R,6aS,6bR,8aR,9S,10S,12aR,12bR,14bS)-9-formyl-5,10-dihydroxy-2,2,6a,6b,9,12a-hexamethyl-1,3,4,5,6,6a,6b,7,8,8a,9,10,11,12,12a,12b,13,14b-octadecahydropicene-4a (2H)-carboxylate]	> 10 µM	> 10 µM	> 10 µM	> 10 µM	> 10 µM	176 to 178 °C
CC1(C)CC[C@]2(C(=O)OCCn3ncn(-c4ccc(Cl)cc4)c3=O)[C@H](O)C[C@]3(C)C(=CC[C@@H]4[C@@]5(C)CC[C@H](O)[C@@](C)(C=O)[C@@H]5CC[C@]43C)[C@@H]2C1 [Compound C3, 2-(4-(4-chlorophenyl)-5-oxo-4,5-dihydro-1H-1,2,4-triazol-1-yl)ethyl (4aR,5R,6aS,6bR,8aR,9S,10S,12aR,12bR,14bS)-9-formyl-5,10-dihydroxy-2,2,6a,6b,9,12a-hexamethyl-1,3,4,5,6,6a,6b,7,8,8a,9,10,11,12,12a,12b,13,14b-octadecahydropicene-4a (2H)-carboxylate]	3.11 ± 1.02 µM	7.11 ± 1.54 µM	> 10 µM	> 10 µM	> 10 µM	166 to 168 °C
CC1(C)CC[C@]2(C(=O)OCCn3ncn(-c4ccc(Cl)c(Cl)c4)c3=O)[C@H](O)C[C@]3(C)C(=CC[C@@H]4[C@@]5(C)CC[C@H](O)[C@@](C)(C=O)[C@@H]5CC[C@]43C)[C@@H]2C1 [Compound C4, 2-(4-(3,4-dichlorophenyl)-5-oxo-4,5-dihydro-1H-1,2,4-triazol-1-yl)ethyl (4aR,5R,6aS,6bR,8aR,9S,10S,12aR,12bR,14bS)-9-formyl-5,10-dihydroxy-2,2,6a,6b,9,12a-hexamethyl-1,3,4,5,6,6a,6b,7,8,8a,9,10,11,12,12a,12b,13,14b-octadecahydropicene-4a (2H)-carboxylate]	> 10 µM	> 10 µM	> 10 µM	> 10 µM	> 10 µM	187 to 189 °C
